Source: ChEMBL document CHEMBL5370632, “Expanding the Chemical Space: New Approach to Cell-Permeable Drugs” (ACS Med Chem Lett, 2023)

Legend:
[1] = test system: K562; assay: cells; conditions: Homo sapiens, K562, 72 h
[2] = test system: K562; assay: cells; conditions: Homo sapiens, K562, 72 h; remark: listed apart in the source
[3] = biological target: Bcr/Abl fusion protein (Homo sapiens, UniProt P00519, T315I); assay: Inhibition of human BCR-ABL1 T315I mutant using Tyr2 peptide as substrate incubated for 1 hrs by FRET based Z-LYTE assay; type: protein assay
[4] = test system: K562; assay: Antiproliferative activity against human K562 cells assessed as inhibition of cell growth incubated for 3 days by celltiter-glo 2.0 assay; type: functional, cell-based; conditions: K562, 72 h
[5] = test system: K562; assay: Antiproliferative activity against human K562 cells expressing ABL T315I mutant assessed as inhibition of cell growth incubated for 3 days by celltiter-glo 2.0 assay; type: functional, cell-based; conditions: K562, 72 h
[6] = biological target: Bcr/Abl fusion protein (Homo sapiens, UniProt P00519); type: protein assay
Description: Inhibition of wild type human BCR-ABL1 using Tyr2 peptide as substrate incubated for 1 hrs by FRET based Z-LYTE assay

SMILES | EC50 [1] | EC50 [2] | EC50 [3] | EC50 [4] | EC50 [5] | EC50 [6]
Cc1nc(Nc2ncc(C(=O)Nc3c(C)cccc3Cl)s2)cc(N2CCN(CCO)CC2)n1 [DASATINIB] | 12 nM | 0.26 nM | – | – | – | –
Cc1ccc(C(=O)Nc2ccc(CN3CCN(C(=O)CCOCCOCCOCCOCCOCCOCCOCCOCCOCCOCCOCCOCCOCCOCCOCCOCCOCCOCCOCCOCCOCCOCCOCCOCCNC(=O)C4CCN(c5ncc(C(=O)Nc6ccc(OC(F)(F)Cl)cc6)cc5-c5ccn[nH]5)CC4)CC3)c(C(F)(F)F)c2)cc1C#Cc1cnc2cccnn12 | – | – | 64 nM | 0.87 nM | 26.3 nM | 3.57 nM
Cc1nc(Nc2ncc(C(=O)Nc3c(C)cccc3Cl)s2)cc(N2CCN(C(=O)CCOCCOCCOCCOCCOCCOCCOCCOCCOCCOCCOCCOCCNC(=O)C3CCN(c4ncc(C(=O)Nc5ccc(OC(F)(F)Cl)cc5)cc4-c4ccn[nH]4)CC3)CC2)n1 | – | – | 7.23 nM | 2.47 nM | > 300 nM | 0.44 nM
Cc1nc(Nc2ncc(C(=O)Nc3c(C)cccc3Cl)s2)cc(N2CCN(C(=O)CCOCCOCCOCCOCCOCCOCCOCCOCCOCCOCCNC(=O)C3CCN(c4ncc(C(=O)Nc5ccc(OC(F)(F)Cl)cc5)cc4-c4ccn[nH]4)CC3)CC2)n1 | – | – | 23.8 nM | 2.49 nM | > 300 nM | 0.8 nM
